{"source": "paper PMC3810402", "about": "(Journal of the American Chemical Society, 2008)", "key": {"HCT116-p53+/+ cells": {"test_system": "HCT116-p53+/+ cells", "assay": "MTS cell viability assay, HCT116", "format": "cell-based", "conditions": "single dose, 10 μg/mL, positive control"}, "SW480 cells (mutant p53)": {"test_system": "SW480 cells (mutant p53)", "assay": "Tumor-killing activity by Trypan blue cell count, SW480", "format": "cell-based", "conditions": "added daily, 10 μg/mL"}}, "data": [{"smiles": "COc1ccc(C2=N[C@@H](c3ccc(Cl)cc3)[C@@H](c3ccc(Cl)cc3)N2C(=O)N2CCNC(=O)C2)c(OC(C)C)c1", "note": "[Nutlin-3]", "values": [{"measurement": "HCT116 cell viability (MTS)", "setting": "HCT116-p53+/+ cells", "result": "a reduction in HCT116 cell viability"}, {"measurement": "effectiveness against SW480", "setting": "SW480 cells (mutant p53)", "result": "ineffective"}]}]}
